# Experiments:
# CCK1R = molecular target: T1, CCK1R (Homo sapiens, UniProt P32238); assay: CCK1R cAMP accumulation assay, PAM format, HEK-293 CCK1R cells; format: cell-based; set-up: expressed in transfected cells; host or cells: HEK-293; conditions: for EC50: EC20 concentration of CCK; for Emax: HEK293, EC20 concentration of CCK
# T1 sequence (P32238 1-428): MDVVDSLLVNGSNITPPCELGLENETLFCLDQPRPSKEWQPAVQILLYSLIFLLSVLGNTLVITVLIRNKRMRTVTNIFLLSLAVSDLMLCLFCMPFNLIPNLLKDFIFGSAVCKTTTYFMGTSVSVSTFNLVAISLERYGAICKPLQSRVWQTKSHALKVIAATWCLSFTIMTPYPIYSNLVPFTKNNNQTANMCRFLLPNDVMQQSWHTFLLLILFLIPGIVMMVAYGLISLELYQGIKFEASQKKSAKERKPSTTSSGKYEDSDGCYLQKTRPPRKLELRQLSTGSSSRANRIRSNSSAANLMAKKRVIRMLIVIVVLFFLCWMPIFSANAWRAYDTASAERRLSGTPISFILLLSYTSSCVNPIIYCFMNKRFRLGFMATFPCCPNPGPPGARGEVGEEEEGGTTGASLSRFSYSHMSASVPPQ
# Description: Possible off-target biological effects. […] Here, we tested them at the vasopressin-2 receptor (AVP2R), representing a class A GPCR structurally related to CCK1R, which is coupled to Gs. The activity at AVP2R was tested using AVP2R-overexpressing CHO-K1 (PAM format) or HEK-293 (agonist format) cells, stimulating the cells with vasopressin. Original hits were tested in both agonist and PAM formats. Since all recognized compound responses were present in both formats, we continued to screen analogs in only the PAM format (also able to capture agonist effects) in CHO-K1 AVP2R cells for potential enhanced sensitivity. The dose–response data sets for original hits were combined, as the PAM and agonist effects were indistinguishable. In brief, arginine vasopressin (AVP) orthosteric stimulator dilutions and ligand and compound dose–response titrations in DMSO were transferred onto a 1536-well plate (Corning #3725) using an Echo liquid handler (Labcyte). Thawed cryopreserved cell stocks were diluted in stimulation buffer consisting of HBSS (Hank’s Balanced Salt Solution with Ca^2+ and Mg^2+, Gibco #24020117), 5 mM HEPES (hydroxyethyl piperazineethanesulfonic acid), 0.5 mM IBMX (3-isobutyl-1-methylxanthine, Sigma-Aldrich), and 0.075% BSA (7.5% DTPA-purified bovine serum albumin, PerkinElmer). The resulting cell suspension was added to the microplate and incubated with test compounds at room temperature for 30 min. Then, the detection reagents from the Cisbio cAMP Gs Dynamic HTRF detection kit were added. The plate was kept at room temperature for 30 min and read on a PHERAstar FSX microplate reader. Dose–response curves were performed as 16-point 2-fold dilutions in duplicate in at least two independent experiments.
# For CCK1R-induced Gs signaling studies, we performed cAMP accumulation assays as described above and as previously reported, utilizing the HEK-293 cells overexpressing CCK1Rs and the EC20 concentration of CCK for screening in PAM format.
# CCK2R = molecular target: T2, CCK2R (Homo sapiens, UniProt P32239); assay: Intracellular calcium assay (Fura-8-AM) in CHO-CCK2R cells; format: cell-based; conditions: compound 10 µM
# T2 construct: expressed in transfected cells; host or cells: CHO-K1 (CHO-CCK2R line)
# T2 sequence (P32239 1-447): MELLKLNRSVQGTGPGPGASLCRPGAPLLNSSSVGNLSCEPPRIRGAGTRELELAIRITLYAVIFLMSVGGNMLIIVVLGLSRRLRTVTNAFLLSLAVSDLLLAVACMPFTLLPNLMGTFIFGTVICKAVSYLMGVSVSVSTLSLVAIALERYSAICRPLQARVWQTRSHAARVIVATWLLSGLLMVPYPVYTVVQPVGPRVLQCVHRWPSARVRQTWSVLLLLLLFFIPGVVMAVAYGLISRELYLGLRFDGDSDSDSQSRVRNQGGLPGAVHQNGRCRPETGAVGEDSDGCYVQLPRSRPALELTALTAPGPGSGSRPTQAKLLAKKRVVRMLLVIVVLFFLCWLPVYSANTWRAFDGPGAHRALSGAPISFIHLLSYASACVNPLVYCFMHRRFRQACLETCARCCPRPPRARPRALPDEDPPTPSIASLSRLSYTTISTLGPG
# Description: Biological activity was quantified in the CHO cell lines described above using intracellular calcium assays that were performed, as previously described, using Fura-8-AM (AAT Bioquest, Pleasonton, CA, USA). Full agonist dose–response curves were performed along with determination of maximal responses to 0.1 mM ATP, targeting an endogenous receptor present on the parental cells. Concentration–response curves of peak intracellular calcium responses were analyzed and plotted as percentages of maximal responses using non-linear regression analysis in Prism 9.1 (GraphPad).
SMILES,EC50 (CCK1R) [µM],Emax (CCK1R) [%],Effect on CCK action at CCK2R (intracellular calcium) (CCK2R)
CCCc1nc2oc3c(NCCCN(C)C)ncnc3c2c2c1CCCC2 [CMP-28],15.6 ± 12.4,56 ± 26,no effect on CCK2R
CCN(CC)CCNc1ncnc2c1sc1nc(N3CCOCC3)c3c(c12)CCCC3 [CMP-1],14.7 ± 7.3,48 ± 31,no effect on CCK2R
